# Experimental data: US20180327367A1, “MACROCYCLIC BROAD SPECTRUM ANTIBIOTICS” (priority 2015, published 2018)
# Where two headings read alike, the source gives them in different places.
# Tests used:
# [1] = tested on: Escherichia coli ATCC 25922; test: Minimum inhibitory concentration, broth micro-dilution (CLSI), E. coli; assay type: cell-based; settings: Escherichia coli, ATCC25922, 22 h, 35° C., 22 hours
# [2] = biological target: T1, SpsB (Staphylococcus aureus signal peptidase) (Staphylococcus aureus, UniProt P0A070); test: cell-based; assay type: biochemical; settings: SpsB IC50, whole-cell S. aureus (USA300 background, overexpressing SpsB) as SpsB source; fluorogenic peptide substrate, kinetic read 30 min
# T1 construct: This assay uses a suspension of Staphylococcus aureus cells as a source of SpsB instead of recombinant SpsB protein; endogenous in cells; host or cells: S. aureus, USA300 background, overexpressing SpsB (whole-cell suspension from frozen pellets)
# T1 sequence (P0A070 whole entry): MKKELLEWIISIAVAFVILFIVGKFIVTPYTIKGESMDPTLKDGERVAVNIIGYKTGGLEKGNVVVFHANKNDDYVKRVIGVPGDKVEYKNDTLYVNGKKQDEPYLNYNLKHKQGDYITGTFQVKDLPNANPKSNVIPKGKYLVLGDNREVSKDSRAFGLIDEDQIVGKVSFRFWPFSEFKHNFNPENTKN
# Summary of the method: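 Whole S. aureus cells (USA300, overexpressing SpsB) in PBS with MgCl2, CaCl2 and 0.1% Tween-80 served as enzyme source, mixed with 20 μM stock of (Dabcyl)βAla-KPAKAAE(Edans) substrate before use. Fluorescence (ex 340/em 490 nm) read kinetically over 30 min. IC50 from reaction rate versus 11-point inhibitor concentration.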
# [3] = tested on: Methicillin Resistant Staphylococcus aureus strain USA 300, NRS384; test: Minimum inhibitory concentration, broth micro-dilution (CLSI), S. aureus; assay type: cell-based; settings: Staphylococcus aureus, MRSA / NRS 384 / USA300, 22 h, 35° C., 22 hours
# Summary of the method: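 Ten-point 2-fold series began at 4 μg/mL in protocol 2 and 0.5 μg/mL in protocol 3, in cation-adjusted MHB plus 0.002% Tween-80. Bacteria added to OD600 0.0005 final and incubated at 35° C for 22 hours per CLSI microdilution.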
# [4] = tested on: Escherichia coli MC4100 harboring the IMP4213 (E. coli IMP); test: microbe, parasite or virus in culture; assay type: cell-based; settings: Escherichia coli, 22 h, read-out: MIC (μg/mL) E. coli IMP, E. coli MC4100 IMP4213, increased outer-membrane permeability; 35° C., 22 hours
# Summary of the method: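 Colonies grown 20 hours at 35° C were suspended in cation-adjusted Mueller Hinton Broth with 0.002% Tween-80. Cells were then added to 2-fold compound dilutions starting at 4 or 0.5 μg/mL, at OD600 0.0005.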
# [5] = E. coli ATCC 25922, read-out: MIC (μg/mL) E. coli
# [6] = MRSA USA 300 NRS384, read-out: MIC (μg/mL) S. aureus
# [7] = read-out: MIC (μg/mL) E. coli, E. coli ATCC 25922
# [8] = read-out: MIC (μg/mL) S. aureus, MRSA USA 300 NRS384
structure (smiles),measurement,setting,value
CCCCCCCCCCCC(=O)N[C@@H](CCO)C(=O)N(C)[C@@H]1C(=O)N[C@@H](C)C(=O)N[C@H](C(=O)NCC#N)Cc2ccc(OCCN)c(c2)-c2cc1ccc2OCCN [Compound 257],MIC,[1]; [5],12 µg/mL
same,IC50,[2],0.92 nM
same,MIC,[3]; [6],0.13 µg/mL
same,MIC,[4],0.063 µg/mL
CCCCc1ccc(C(=O)N[C@@H](CCO)C(=O)N(C)[C@@H]2C(=O)N[C@@H](C)C(=O)N[C@H](C(=O)NCC#N)Cc3ccc(OCCN)c(c3)-c3cc2ccc3OCCN)c(C)c1 [Compound 258],MIC,[1]; [5],64 µg/mL
same,IC50,[2],2.8 nM
same,MIC,[3]; [6],1 µg/mL
same,MIC,[4],0.19 µg/mL
CCCCCCCc1ccc(C(=O)N[C@@H](CCO)C(=O)N(C)[C@@H]2C(=O)N[C@@H](C)C(=O)N[C@H](C(=O)NCC#N)Cc3ccc(OCCN)c(c3)-c3cc2ccc3OCCN)c(C)c1 [Compound 260],MIC,[1]; [5],2 µg/mL
same,IC50,[2],1.1 nM
same,MIC,[3]; [6],0.094 µg/mL
same,MIC,[4],0.031 µg/mL
Cc1cc(-c2ccc(CC(C)C)cc2)ccc1C(=O)N[C@@H](CCO)C(=O)N(C)[C@@H]1C(=O)N[C@@H](C)C(=O)N[C@H](C(=O)NCC#N)Cc2ccc(OCCN)c(c2)-c2cc1ccc2OCCN [Compound 261],MIC,[1]; [5],0.5 µg/mL
same,IC50,[2],4.6 nM
same,MIC,[3]; [6],0.13 µg/mL
same,MIC,[4],0.047 µg/mL
CCCCCCCCc1ccc(C(=O)N[C@@H](CCO)C(=O)N(C)[C@@H]2C(=O)N[C@@H](C)C(=O)N[C@H](C(=O)NCC#N)Cc3ccc(OCCN)c(c3)-c3cc2ccc3OCCN)c(C)c1 [Compound 262],MIC,[1]; [5],1 µg/mL
same,IC50,[2],0.9 nM
same,MIC,[3]; [6],0.063 µg/mL
same,MIC,[4],0.02 µg/mL
CCCCCCCCc1ccc(C(=O)N[C@@H](CCNCC(=O)O)C(=O)N(C)[C@@H]2C(=O)N[C@@H](C)C(=O)N[C@H](C(=O)NCC#N)Cc3ccc(OCCN)c(c3)-c3cc2ccc3OCCN)c(C)c1 [Compound 263],MIC,[1]; [5],2 µg/mL
same,IC50,[2],1.1 nM
same,MIC,[3]; [6],0.13 µg/mL
same,MIC,[4],0.023 µg/mL
CCCCCCCCCCCC(=O)N[C@@H](CCCO)C(=O)N(C)[C@@H]1C(=O)N[C@@H](C)C(=O)N[C@H](C(=O)NCC#N)Cc2ccc(OCCN)c(c2)-c2cc1ccc2OCCN [Compound 264],MIC,[1]; [5],16 µg/mL
same,IC50,[2],2 nM
same,MIC,[3]; [6],0.13 µg/mL
same,MIC,[4],0.094 µg/mL
CCC(C)(C)c1ccc(C(=O)N[C@@H](CCN)C(=O)N(C)[C@@H]2C(=O)N[C@@H](C)C(=O)N[C@H](C(=O)NCC#N)Cc3ccc(OCCN)c(c3)-c3cc2ccc3OCCN)c(C)c1 [Compound 265],MIC,[1]; [7],2.5 µg/mL
same,IC50,[2],0.89 nM
same,MIC,[3]; [8],0.13 µg/mL
same,MIC,[4],0.043 µg/mL
Cc1cc(C(C)(C)C)ccc1C(=O)N[C@@H](CCN)C(=O)N(C)[C@@H]1C(=O)N[C@@H](C)C(=O)N[C@H](C(=O)NCC#N)Cc2ccc(OCCN)c(c2)-c2cc1ccc2OCCN [Compound 266],MIC,[1]; [5],3.5 µg/mL
same,IC50,[2],2.1 nM
same,MIC,[3]; [6],0.5 µg/mL
same,MIC,[4],0.083 µg/mL
CCCCCCCOc1ccc(C(=O)N[C@@H](CCN)C(=O)N(C)[C@@H]2C(=O)N[C@@H](C)C(=O)N[C@H](C(=O)NCC#N)Cc3ccc(OCCN)c(c3)-c3cc2ccc3OCCN)c(Cl)c1 [Compound 267],MIC,[1]; [7],0.13 µg/mL
same,IC50,[2],0.63 nM
same,MIC,[3]; [8],0.027 µg/mL
same,MIC,[4],0.012 µg/mL
CCCCCCCOc1ccc(C(=O)N[C@@H](CCN)C(=O)N(C)[C@@H]2C(=O)N[C@@H](C)C(=O)N[C@H](C(=O)NCC#N)Cc3ccc(OCCN)c(c3)-c3cc2ccc3OCCN)c(C)c1 [Compound 268],MIC,[1]; [5],0.22 µg/mL
same,IC50,[2],0.86 nM
same,MIC,[3]; [6],0.035 µg/mL
same,MIC,[4],< 0.0039 µg/mL
CCCCOc1ccc(C(=O)N[C@@H](CCN)C(=O)N(C)[C@@H]2C(=O)N[C@@H](C)C(=O)N[C@H](C(=O)NCC#N)Cc3ccc(OCCN)c(c3)-c3cc2ccc3OCCN)c(Cl)c1 [Compound 269],MIC,[1]; [5],1 µg/mL
same,IC50,[2],1.2 nM
same,MIC,[3]; [6],0.25 µg/mL
same,MIC,[4],0.023 µg/mL
CCCCCOc1ccc(C(=O)N[C@@H](CCN)C(=O)N(C)[C@@H]2C(=O)N[C@@H](C)C(=O)N[C@H](C(=O)NCC#N)Cc3ccc(OCCN)c(c3)-c3cc2ccc3OCCN)c(Cl)c1 [Compound 270],MIC,[1]; [5],0.63 µg/mL
same,IC50,[2],0.89 nM
same,MIC,[3]; [6],0.094 µg/mL
same,MIC,[4],0.016 µg/mL
CCCCCCOc1ccc(C(=O)N[C@@H](CCN)C(=O)N(C)[C@@H]2C(=O)N[C@@H](C)C(=O)N[C@H](C(=O)NCC#N)Cc3ccc(OCCN)c(c3)-c3cc2ccc3OCCN)c(Cl)c1 [Compound 271],MIC,[1]; [5],0.31 µg/mL
same,IC50,[2],1.1 nM
same,MIC,[3]; [6],0.047 µg/mL
same,MIC,[4],0.016 µg/mL
CCCCCCCCOc1ccc(C(=O)N[C@@H](CCN)C(=O)N(C)[C@@H]2C(=O)N[C@@H](C)C(=O)N[C@H](C(=O)NCC#N)Cc3ccc(OCCN)c(c3)-c3cc2ccc3OCCN)c(Cl)c1 [Compound 272],MIC,[1]; [5],0.13 µg/mL
same,IC50,[2],0.7 nM
same,MIC,[3]; [6],0.047 µg/mL
same,MIC,[4],0.0078 µg/mL
CCCCCCCOc1ccc(C(=O)N[C@@H](CCN)C(=O)N(C)[C@@H]2C(=O)N[C@@H](C)C(=O)N[C@H](C(=O)NCC#N)Cc3ccc(OCCN)c(c3)-c3cc2ccc3OCCN)c(C(F)(F)F)c1 [Compound 273],MIC,[1]; [5],0.5 µg/mL
same,IC50,[2],0.6 nM
same,MIC,[3]; [6],0.031 µg/mL
same,MIC,[4],0.016 µg/mL
Cc1cc(OCCC(C)C)ccc1C(=O)N[C@@H](CCN)C(=O)N(C)[C@@H]1C(=O)N[C@@H](C)C(=O)N[C@H](C(=O)NCC#N)Cc2ccc(OCCN)c(c2)-c2cc1ccc2OCCN [Compound 274],MIC,[1]; [5],1.3 µg/mL
same,IC50,[2],0.79 nM
same,MIC,[3]; [6],0.13 µg/mL
same,MIC,[4],0.02 µg/mL
Cc1cc(OCC2CCCCC2)ccc1C(=O)N[C@@H](CCN)C(=O)N(C)[C@@H]1C(=O)N[C@@H](C)C(=O)N[C@H](C(=O)NCC#N)Cc2ccc(OCCN)c(c2)-c2cc1ccc2OCCN [Compound 275],MIC,[1]; [5],0.38 µg/mL
same,IC50,[2],0.55 nM
same,MIC,[3]; [6],0.063 µg/mL
same,MIC,[4],0.014 µg/mL
Cc1cc(OCC(C)C)ccc1C(=O)N[C@@H](CCN)C(=O)N(C)[C@@H]1C(=O)N[C@@H](C)C(=O)N[C@H](C(=O)NCC#N)Cc2ccc(OCCN)c(c2)-c2cc1ccc2OCCN [Compound 276],MIC,[1]; [5],2 µg/mL
same,IC50,[2],1.8 nM
same,MIC,[3]; [6],0.58 µg/mL
same,MIC,[4],0.031 µg/mL
Cc1cc(OCCC(C)(C)C)ccc1C(=O)N[C@@H](CCN)C(=O)N(C)[C@@H]1C(=O)N[C@@H](C)C(=O)N[C@H](C(=O)NCC#N)Cc2ccc(OCCN)c(c2)-c2cc1ccc2OCCN [Compound 277],MIC,[1]; [5],1 µg/mL
same,IC50,[2],1.1 nM
same,MIC,[3]; [6],0.063 µg/mL
same,MIC,[4],0.012 µg/mL
Cc1cc(OCC(C)(C)C)ccc1C(=O)N[C@@H](CCN)C(=O)N(C)[C@@H]1C(=O)N[C@@H](C)C(=O)N[C@H](C(=O)NCC#N)Cc2ccc(OCCN)c(c2)-c2cc1ccc2OCCN [Compound 280],MIC,[1]; [5],0.63 µg/mL
same,IC50,[2],2 nM
same,MIC,[3]; [6],0.13 µg/mL
same,MIC,[4],0.027 µg/mL
CCCCCCCOc1ccc(C(=O)N[C@@H](CCCN)C(=O)N(C)[C@@H]2C(=O)N[C@@H](C)C(=O)N[C@H](C(=O)NCC#N)Cc3ccc(OCCN)c(c3)-c3cc2ccc3OCCN)c(C)c1 [Compound 281],MIC,[1]; [5],0.25 µg/mL
same,IC50,[2],0.75 nM
same,MIC,[3]; [6],0.023 µg/mL
same,MIC,[4],0.0078 µg/mL
CCCCCCCOc1ccc(C(=O)N[C@@H](CCCN)C(=O)N(C)[C@@H]2C(=O)N[C@@H](C)C(=O)N[C@H](C(=O)NCC#N)Cc3ccc(OCCN)c(c3)-c3cc2ccc3OCCN)c(Cl)c1 [Compound 282],MIC,[1]; [5],0.25 µg/mL
same,IC50,[2],0.71 nM
same,MIC,[3]; [6],0.016 µg/mL
same,MIC,[4],0.0078 µg/mL
CCCCC#CCOc1ccc(C(=O)N[C@@H](CCN)C(=O)N(C)[C@@H]2C(=O)N[C@@H](C)C(=O)N[C@H](C(=O)NCC#N)Cc3ccc(OCCN)c(c3)-c3cc2ccc3OCCN)c(Cl)c1 [Compound 283],MIC,[1]; [5],1 µg/mL
same,IC50,[2],0.87 nM
same,MIC,[3]; [6],0.063 µg/mL
same,MIC,[4],0.012 µg/mL
